Data: patent US12180170B1, “2-(5-(3-fluorophenyl)-4-phenyl-4H-1,2,4-triazol-3-ylthio)acetic acid as an antimicrobial compound” (KING FAISAL UNIVERSITY, priority 2023, dated 2024)

Key:
Format in all cases: cell-based
Bacillus cereus = test: Agar plate disc-diffusion, antibacterial inhibition zone; conditions: nutrient agar, 37° C., 48 h, DMSO control zone subtracted
Method: (§1) The agar plate disc-diffusion method was applied. […] The discs were then placed onto the surface of agar plates (nutrient agar for bacteria and Sabouraud's dextrose agar for fungi) seeded with the test organism. Each plate contained 15 mL of the agar medium, previously seeded with 0.2 mL of the broth culture of each organism pregrown for 18 h. The plates were incubated at 37° C. for 48 h, and 72 h for fungi. The inhibition zones was measured in mm. Discs impregnated with DMSO were used as a control, and its inhibition zone was subtracted from the tested compound actual inhibition zone.

Escherichia coli = test: as above; conditions: nutrient agar, 37° C., 48 h, DMSO control zone subtracted
Method: as §1

Pseudomonas aeruginosa = test: as above; conditions: nutrient agar, 37° C., 48 h, DMSO control zone subtracted
Method: as §1

Staphylococcus aureus = test: as above; conditions: nutrient agar, 37° C., 48 h, DMSO control zone subtracted
Method: as §1

Aspergillus flavus = test: Agar plate disc-diffusion, antifungal inhibition zone; conditions: Sabouraud's dextrose agar, 37° C., 72 h, DMSO control zone subtracted
Method: as §1

[1] = tested on: Chrysosporium keratinophilum; test: as above; conditions: Sabouraud's dextrose agar, 37° C., 72 h, DMSO control zone subtracted
Method: as §1

[2] = A = concentration of comp. = 10,000 μL
[3] = B = concentration of comp. = 30,000 μL
[4] = C = concentration of comp. = 50,000 μL

## O=C(O)CSc1nnc(-c2cccc(F)c2)n1-c1ccccc1 [III, 2-(5-(3-fluorophenyl)-4-phenyl-4H-1,2,4-triazol-3-ylthio)acetic acid]
Bacillus cereus; [2]
  inhibition zone, Bacillus Cereus, A: 23 mm
Bacillus cereus; [3]
  inhibition zone, Bacillus Cereus, B: 27 mm
Bacillus cereus; [4]
  inhibition zone, Bacillus Cereus, C: 40 mm
Escherichia coli; A =
  inhibition zone, Escherichia coli, A: 22 mm
Escherichia coli; [3]
  inhibition zone, Escherichia coli, B: 30 mm
Escherichia coli; [4]
  inhibition zone, Escherichia coli, C: 49 mm
Pseudomonas aeruginosa; [2]
  inhibition zone, Pseudomonas aeruginosa, A: 25 mm
Pseudomonas aeruginosa; [3]
  inhibition zone, Pseudomonas aeruginosa, B: 27 mm
Pseudomonas aeruginosa; [4]
  inhibition zone, Pseudomonas aeruginosa, C: 46 mm
Staphylococcus aureus; [2]
  inhibition zone, Staphylococcus aureus, A: 15 mm
Staphylococcus aureus; [3]
  inhibition zone, Staphylococcus aureus, B: 20 mm
Staphylococcus aureus; [4]
  inhibition zone, Staphylococcus aureus, C: 24 mm
Aspergillus flavus; [2]
  inhibition zone, Aspergillus flavus, A: 20 mm
Aspergillus flavus; [3]
  inhibition zone, Aspergillus flavus, B: 27 mm
Aspergillus flavus; [4]
  inhibition zone, Aspergillus flavus, C: 36 mm
[1]; [2]
  inhibition zone, Chrysosporium keratinophilum, A: 24 mm
[1]; [3]
  inhibition zone, Chrysosporium keratinophilum, B: 27 mm
[1]; [4]
  inhibition zone, Chrysosporium keratinophilum, C: 44 mm
